SMILES strings stand for the structures. Like-named read-outs stand apart in the source and are kept apart here.

The target of one assay is T1, RORγ LBD (Homo sapiens, UniProt P51449).
T1 construct: RORγ LBD was diluted with the complete buffer D to a concentration of 1 ng/μL; GST; purchased AB Vector
T1 sequence (P51449 269-508 limits assumed): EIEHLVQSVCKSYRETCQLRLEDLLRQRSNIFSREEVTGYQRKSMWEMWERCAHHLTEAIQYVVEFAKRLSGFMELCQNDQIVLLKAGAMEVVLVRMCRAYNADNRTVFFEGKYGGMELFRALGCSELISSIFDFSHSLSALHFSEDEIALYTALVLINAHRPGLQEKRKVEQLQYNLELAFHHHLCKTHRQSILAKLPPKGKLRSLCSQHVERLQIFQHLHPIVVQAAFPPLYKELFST
The assay can be described thus: LanthaScreen TR-FRET RORγ co-activation system, effect on in vitro activity of RORγ. The class given is biochemical. The conditions noted are these: for EC50: TR-FRET RORγ co-activation, for agonist the value refers to EC50, read-out: EC50/IC50 a (nM): EC50 (agonist); for Type: agonist or inverse agonist of RORγ. The method, then:
1. LanthaScreen® TR-FRET RORγ co-activation system (Life Technologies)
A complete buffer D (complete TR-FRET Coregulator) (Life Technologies) was formulated first, containing a final concentration of 5 mM DTT. The final concentration of DMSO was 2%. The test compound was serially diluted to 2× final concentration in the complete buffer D containing 2% of DMSO, and the maximum dose was […]. The test compound was added to the test wells of a 384-well plate (PerkinElmer) in 10 μl/well. Two parallel control wells were set up for each test compound at the same concentration. 4×RORγ LBD (AB Vector) was formulated. RORγ LBD was diluted with the complete buffer D to a concentration of 1 ng/μL, and added to the test wells of 384-well plate in 5 μl/well. The negative control well was 5 μL of complete buffer D without RORγ LBD. A mixed solution comprising 0.6 μM of fluorescein-D22 (4×) and 8 nM of terbium(Tb)-labeled anti-GST antibody (4×) (Life Technologies) was formulated with the complete buffer D, and 5 μL of the mixed solution was added to the 384-well plate. The total reaction system was 20 μL. The 384-well plate was gently shaken on a shaker, and incubated at room temperature in the dark for 2-4 hours.
Fluorescence readings were determined with Tecan Infinite M1000. The logarithmic curve of the ratio of the emission wavelength of 520 nm/495 nm to the concentration of the compound was plotted by GraphPad Prism 6.0 software. EC50/IC50 value of the test compound was calculated.

In a further assay the test system is IL-17A. The experiment in a line: IL-17A enzyme-linked immune quantitative assay in cytostim-activated human PBMC. It is filed as cell-based. The conditions noted are these: 72 h; IL-17A in supernatant of human PBMC, 3 days after drug treatment. Here is the method: 1. Human peripheral blood mononuclear cells (PBMC) (Zenbio)
5. Human IL-17 enzyme-linked immunosorbent kit (R&D System)
Frozen human peripheral blood mononuclear cells (PBMC) were rapidly resuscitated in pre-warmed lymphocyte culture medium, and centrifuged at 1000 rpm for 10 min. The cell culture supernatant was removed. The cells were gently suspended in TexMACS medium and counted. The T cell activation reagent cytostim (10 μl/ml) was added in proportion to the cell suspension. Then, the cells were seeded in a 96-well cell culture plate at a density of 1×10^5 peripheral blood mononuclear cells/well. The test compounds were diluted in gradient with TexMACS medium, and added respectively to the test wells, with 2-3 parallel wells per group. A negative control well containing only cells without cytostim was provided to obtain the background reading. The cell culture plate was placed in a incubator at 5% carbon dioxide, 37° C. to incubate for 3 days. The cell culture supernatant was collected 3 days after drug treatment, and centrifuged to remove the suspension. Then, IL-17A in the supernatant was quantified with IL-17A enzyme-linked immunosorbent kit. EC50 values of the test compounds were calculated with GraphPad Prism 6.0.

Where [1] appears, read: for agonist the value refers to Emax(%), read-out: Emax(%)/maximum inhibition rate b: Emax(%) (agonist).

Take `CCS(=O)(=O)c1ccc(C(CO)NC(=O)c2ccc3c(c2)cc(Cc2ccccc2C(F)(F)F)n3C(C)C)cc1` (stereo not shown) [Example 1, N-(1-(4-(Ethylsulfonyl)phenyl)-2-hydroxyethyl)-1-isopropyl-2-(2-(trifluoromethyl)benzyl)-1H-indole-5-carboxamide]: at RORγ LBD, the EC50 turned out to be 64 nM and the Type result is “Agonist”. In addition, the Emax on RORγ LBD (setting [1]) amounted to 94%.

In the case of `CCS(=O)(=O)c1ccc(C(CO)NC(=O)c2ccc3c(c2)cc(Cc2ccc(Cl)cc2C(F)(F)F)n3CCF)cc1` (stereo not shown) [Example 2, 2-(4-Chloro-2-(trifluoromethyl)benzyl)-N-(1-(4-(ethylsulfonyl)phenyl)-2-hydroxyethyl)-1-(2-fluoroethyl)-1H-indole-5-carboxamide], in the assay on IL-17A, the EC50 was 0.09 µM and the Emax turned out to be 82%.

With `CCS(=O)(=O)c1ccc([C@@H](CO)NC(=O)c2ccc3c(c2)cc(Cc2ccc(Cl)cc2C(F)(F)F)n3CCF)cc1` [Example 3, (S)-2-(4-Chloro-2-(trifluoromethyl)benzyl)-N-(1-(4-(ethylsulfonyl)phenyl)-2-hydroxyethyl)-1-(2-fluoroethyl)-1H-indole-5-carboxamide], in the assay on IL-17A, the EC50 stood at 0.169 µM and the Emax amounted to 136%.

In the case of `CCS(=O)(=O)c1ccc([C@H](CO)NC(=O)c2cc3cc(Cc4ccc(Cl)cc4C(F)(F)F)n(CCF)c3cc2F)cc1` [Example 5, (R)-2-(4-Chloro-2-(trifluoromethyl)benzyl)-N-(1-(4-(ethylsulfonyl)phenyl)-2-hydroxyethyl)-6-fluoro-1-(2-fluoroethyl)-1H-indole-5-carboxamide], on RORγ LBD, the EC50 stood at 334 nM and the Type result was “Agonist”. Moreover, the Emax on RORγ LBD (setting [1]) is 110%.

Take `CCS(=O)(=O)c1ccc([C@H](CO)NC(=O)c2cc3cc(Cc4ccc(Cl)cc4C(F)(F)F)n(C4CC4)c3cc2F)cc1` [Example 6, (R)-2-(4-Chloro-2-(trifluoromethyl)benzyl)-1-cyclopropyl-N-(1-(4-(ethylsulfonyl)phenyl)-2-hydroxyethyl)-6-fluoro-1H-indole-5-carboxamide]: at RORγ LBD, the EC50 is 79 nM and the Type entry is given as “Agonist”. The Emax at RORγ LBD (setting [1]) turned out to be 105%.

Regarding `CCS(=O)(=O)c1ccc([C@H](CO)NC(=O)c2ccc3c(c2)cc(CN2CCOCC2C(F)(F)F)n3CCF)cc1` (stereo partly drawn) [Example 7, N—((R)-1-(4-(Ethylsulfonyl)phenyl)-2-hydroxyethyl)-1-(2-fluoroethyl)-2-((3-(trifluoromethyl)morpholino)methyl)-1H-indole-5-carboxamide], at RORγ LBD, the EC50 was found to be 80 nM and the Type entry was “Agonist”. For the same compound, on RORγ LBD (setting [1]), the Emax was 84%.

Regarding `CCS(=O)(=O)c1ccc([C@H](CO)NC(=O)c2ccc3c(c2)cc(Cc2ccc(Cl)cc2C(F)(F)F)n3C2CC2)cc1` [Example 11, (R)-2-(4-Chloro-2-(trifluoromethyl)benzyl)-1-cyclopropyl-N-(1-(4-(ethylsulfonyl)phenyl)-2-hydroxyethyl)-1H-indole-5-carboxamide], the EC50 at RORγ LBD turned out to be 22 nM; in the assay on IL-17A, 0.276 µM. Further, the Emax worked out at 94% on RORγ LBD (setting [1]) and 72% with IL-17A.

For `O=C(N[C@@H](CO)c1ccc(S(=O)(=O)NC2CC2)cc1)c1ccc2c(c1)cc(Cc1ccc(Cl)cc1C(F)(F)F)n2CCF` [Example 12, (R)-2-(4-Chloro-2-(trifluoromethyl)benzyl)-N-(1-(4-(N-cyclopropylsulfamoyl)phenyl)-2-hydroxyethyl)-1-(2-fluoroethyl)-1H-indole-5-carboxamide], on RORγ LBD, the EC50 turned out to be 13 nM and the Type entry is “Agonist”. In addition, at RORγ LBD (setting [1]), the Emax was found to be 89%. In addition, in the assay on IL-17A, the EC50 amounted to 0.025 µM and the Emax is 71%.

Turning to `O=C(N[C@@H](CO)c1ccc(S(=O)(=O)CC2CC2)cc1)c1ccc2c(c1)cc(Cc1ccc(Cl)cc1C(F)(F)F)n2CCF` [Example 13, (R)-2-(4-Chloro-2-(trifluoromethyl)benzyl)-N-(1-(4-((cyclopropylmethyl)sulfonyl)phenyl)-2-hydroxyethyl)-1-(2-fluoroethyl)-1H-indole-5-carboxamide], the EC50 on RORγ LBD was 69 nM; in the assay on IL-17A, 0.027 µM. Moreover, at RORγ LBD, the Type result is reported as “Agonist”. Besides, the Emax at RORγ LBD (setting [1]) worked out at 96%; with IL-17A, 65%.

Regarding `O=C(N[C@@H](CO)c1ccc(S(=O)(=O)CC2CC2)cc1)c1ccc2c(c1)cc(Cc1ccc(F)cc1C(F)(F)F)n2CCF` [Example 14, (R)—N-(1-(4-((Cyclopropylmethyl)sulfonyl)phenyl)-2-hydroxyethyl)-2-(4-fluoro-2-(trifluoromethyl)benzyl)-1-(2-fluoroethyl)-1H-indole-5-carboxamide], the EC50 came out at 138 nM on RORγ LBD and 0.042 µM in the assay with IL-17A. The Type result at RORγ LBD is recorded as “Agonist”. Also, the Emax at RORγ LBD (setting [1]) and in the assay with IL-17A was 99% each time.

In the case of `O=C(N[C@@H](CO)c1ccc(S(=O)(=O)C2CC2)cc1)c1ccc2c(c1)cc(Cc1ccc(Cl)cc1C(F)(F)F)n2CCF` [Example 15, (R)-2-(4-Chloro-2-(trifluoromethyl)benzyl)-N-(1-(4-(cyclopropylsulfonyl)phenyl)-2-hydroxyethyl)-1-(2-fluoroethyl)-1H-indole-5-carboxamide], at RORγ LBD, the EC50 amounted to 124 nM and the Type result is listed as “Agonist”. Moreover, at RORγ LBD (setting [1]), the Emax stood at 109%.

On to `CCS(=O)(=O)c1ccc([C@H](COC)NC(=O)c2ccc3c(c2)cc(Cc2ccc(Cl)cc2C(F)(F)F)n3CCF)cc1` [Example 16, (R)-2-(4-Chloro-2-(trifluoromethyl)benzyl)-N-(1-(4-(ethylsulfonyl)phenyl)-2-methoxyethyl)-1-(2-fluoroethyl)-1H-indole-5-carboxamide], for which the EC50 was found to be 18 nM at RORγ LBD and 0.008 µM in the assay on IL-17A. For the same compound, the Type entry on RORγ LBD is “Agonist”. For the same compound, the results for the Emax at RORγ LBD (setting [1]) and with IL-17A were 97% and 99%, respectively.

For the compound `CCS(=O)(=O)c1ccc([C@H](CO)NC(=O)c2ccc3c(c2)cc(Cc2ccc(C(F)(F)F)cc2)n3CCF)cc1` [Example 17, (R)-2-(4-(trifluoromethyl)benzyl)-N-(1-(4-(ethylsulfonyl)phenyl)-2-hydroxyethyl)-1-(2-fluoroethyl)-1H-indole-5-carboxamide], at RORγ LBD, 0.029 µM corresponded to half-maximal inhibition (IC50) and the Type entry is listed as “Inverse agonist”. In addition, the Emax on RORγ LBD (read-out: Emax(%)/maximum inhibition rate b: maximum inhibition rate (inverse agonist)) is 67%.
